Reference: US20260043057A1, “ENZYMATIC SYNTHESIS OF MYCOSPORINE-LIKE AMINO ACIDS” (University of Florida Research Foundation, Incorporated, priority 2022, published 2026)
One block for each compound: values may come before it.

Columns and labels:
MysH = MysH reaction steady-state kinetics with porphyra-334; format: biochemical, Nostoc linckia NIES-25; conditions: 20 to 1000 uM porphyra-334, 0.5 uM MysH, room temperature, 30 min, pH 7.5
Description: To further characterize the catalytic properties of MysH, the recombinant MysH of Nostoc linckia NIES-25 was prepared with a C-terminal His6-tag in E. coli after a single Ni-NTA affinity purification (FIG. 33A). The MysH reaction contained 50 mM Tris-Cl at pH 7.5, 0.5 uM MysH, 50 uM porphyra-334, 1 mM 2-oxoglutarate (2OG), 1 mM Fe(NH4)2(SO4)2, 10 mM ascorbate, and the reaction was performed at room temperature overnight. MysH successfully converted porphyra-334 into palythine-Thr in the HPLC analysis, while the complete conversion was not achieved with a higher enzyme concentration or a longer reaction time. […] To improve the reaction conversion, different concentrations of 2OG, Fe(NH4)2(SO4)2, ascorbate, and shaking speed were tested, but no significant improvement was observed. On the other hand, the inclusion of catalase led to the full conversion of porphyra-334 by MysH (FIG. 33B). The Fe(III)-O—O· species is likely one key intermediate in the MysH reaction. Hydrogen peroxide may be released via […] of Fe(III)-O—O· and inhibit the enzyme reaction.
The optimal MysH reaction conditions were determined to be 50 mM HEPES, pH 7.5, 0.5 uM MysH, 1 mM α-KG, 1 mM ascorbate, 10 uM Fe(NH4)2(SO4)2, and 8 μg/mL catalase. Steady-state kinetic studies were performed with 20 to 1000 uM porphyra-334, and the reactions were carried out at room temperature for 30 min. The reactions followed Michaelis-Menten kinetics (FIG. 34).

[1] = Maximal UV absorbance of MAAs by HPLC with PDA detector; format: physicochemical; conditions: compound produced in engineered E. coli, methanolic extract of cell pellets
Description: HPLC and LC-MS Analysis. Samples were analyzed on a Shimadzu Prominence UHPLC system (Kyoto, Japan) coupled with a PDA detector. The compounds were separated on a Phenomenex Luna C8 column (4.6×250 mm, 5 μm) using the following HPLC program: 2% B for 15 min, 2-90% B gradient in 2 min, 90% B for 2 min, 90-2% in 2 min, and re-equilibration in 2% B for 6 min. The A phase was 0.1 M triethylammonium acetate pH 7.0 and the B phase was methanol. The flow rate was set at 0.5 mL/min. In the quantitative analysis of relative activity of MysD with different amino acid substrates, water containing 0.1% formic acid was used as phase A to fully separate MG with MG-Ala. LC-HRMS and HRMS/MS experiments were conducted on Thermo Scientific™ Q Exactive Focus mass spectrometer with Dionex™ Ultimate™ RSLC 3000 uHPLC system, equipped with H-ESI II probe on Ion Max API Source. Methanol (B)/Water (A) containing 0.1% formic acid were used as mobile phases, and the same LC program was used as in the HPLC analysis. The eluents from the first 3 min were diverted to waste by a diverting valve. MS1 signals were acquired under the Full MS positive ion mode covering a mass range of m/z 150-2000, with resolution at 35,000 and AGC target at 1e6. Fragmentation was obtained with the Parallel Reaction Monitoring (PRM) mode using an inclusion list of calculated parental ions. The AGC target was set at 5e4 for MS2. Precursor ions were selected in the quadrapole typically with an isolation width of 3.0 m/z and fragmented in the HCD cell at a collision energy (CE) of 30. For some ions, the isolation width was 2.0 m/z and step-wise CE of 15, 20, and 25 were used.
HPLC and LC-HRMS analysis. Samples were analyzed on a Shimadzu Prominence UHPLC system (Kyoto, Japan) coupled with a PDA detector. Unless stated elsewhere, the following HPLC procedure was performed. The compounds were separated on a Phenomenex Luna C8 column (4.6×250 mm, 5 μm) using the following HPLC program: 2% B for 15 min, 2-90% B gradient in 2 min, 90% B in 2 min, 90-2% in 2 min, and re-equilibration in 2% B for 6 min. The A phase was water with 0.1 M triethylamine acetate (TEAA) at pH 7 and the B phase was methanol. The flow rate was set at 0.5 mL/min. LC-HRMS and HRMS/MS experiments were conducted on a Thermo Scientific Q Exactive Focus mass spectrometer with a Dionex Ultimate RSLC 3000 uHPLC system, equipped with the H-ESI II probe on an Ion Max API Source. Methanol (B)/water (A) containing 0.1% formic acid were used as mobile phases. The eluents from the first 3 min were diverted to waste by a diverting valve. MS1 signals were acquired under the Full MS positive ion mode, covering a mass range of m/z 150-2000, with resolution at 35 000 and AGC target at 1×10^6.

MysD = MysD reaction with MG and amino acid substrates (substrate preference); format: biochemical, Nostoc linkia NIES-25; conditions: for consumption level of MG in the MysD reaction relative to that with L-Thr (set as 100%): L-Thr and L-Ser 8 min, other amino acids 30 min, from produced disubstituted MAAs; for consumption of MG in the MysD reaction: optimal conditions, after 3 h
Description: The current and previous heterologous expression studies supported the function of MysD in the biosynthesis of disubstituted MAAs (FIG. 3).^29,35 To further characterize its catalytic properties, recombinant His6-tagged MysD of N. linkia NIES-25 was prepared from E. coli after a single affinity purification (FIG. 21). The enzyme reaction was performed with MysD (0.5 μM), MG (50 μM), and L-Thr (1 mM) in the presence of ATP (1 mM) and Mg^2+ (10 mM) at room temperature for 2 h. […] No product was formed in the control reactions without enzyme or ATP (FIG. 5A). The requirement of ATP for the MysD reaction supports its prediction as the D-Ala-D-Ala ligase-like enzyme of the ATP grasp superfamily.^29 The optimal temperature and pH of its reaction were determined at 37° C. and pH=8.5 (FIG. 22). Under these optimal reaction conditions, all 20 natural amino acids were screened (5 mM) along with MG (50 μM) in the MysD reaction. […] LC-HRMS and MS/MS analysis indicated the formation of their corresponding disubstituted MAAs, MG-Ala, MG-Arg (observed [M+H]^+: 402.1977; calculated [M+H]^+: 402.1983), MG-Cys (observed [M+H]^+: 349.1059; calculated [M+H]^+: 349.1064), mycosporine-2-Gly (observed [M+H]^+: 303.1182; calculated [M+H]^+: 303.1187), shinorine, and porphyra-334 (FIGS. 24, 25, and 26). […] Nonetheless, the result of this biochemical study well agreed with the production of porphyra-334 along with small amounts of shinorine and MG-Ala in the above heterologous expression study (FIG. 3C). To further understand MysD's substrate preference, the enzyme concentration was lowered to 0.25 μM. […] The consumed MG level in this reaction was set as 100% to normalize its level in the five other reactions, which was determined from the concentrations of produced disubstituted MAAs in the reactions (FIG. 5C). […] Together, the results of these biochemical studies highlight the broad substrate scope of MysD and its strong preference toward L-Thr in the MAA biosynthesis.
MysD Reaction. MG was purified from extracts of E. coli expressing MysAB2C by HPLC and used as the substrate for the MysD reactions. The quality of MG was calculated based on its reported extinction coefficient (28,100 M^−1cm^−1). The initial MysD reactions included MG (50 μM), L-Thr (1 mM), Mg^2+ (10 mM), and ATP (1 mM) in 100 mM Tris-Cl, pH 7.5. The reactions were initiated by adding MysD (0.5 μM) and then incubated at room temperature for 2 h. The control reactions omitted MysD or ATP. All reactions were quenched by heat inactivation at 95° C. for 10 min. After centrifugation at 20,000×g for 15 min, the clear supernatants were collected for HPLC and LC-HRMS analysis. To determine the optimal reaction conditions, the MysD reaction was performed in 100 mM buffer with a pH of 6.5 to 11 at 16 to 60° C. for 6 min. To explore the substrate scope of MysD, all 20 natural amino acids (5 mM) were screened in the above reaction mixtures under the optimal conditions for 3 h. The reactions were terminated and then analyzed in the HPLC and/or LC-MS analysis. To determine the relative activity of six identified amino acids as MysD's substrates, a two-step strategy was used. First, the reactions were performed with 0.25 μM MysD for 8 min, which led to no more than 50% consumption of MG into porphyra-334 with the best substrate L-Thr and into shinorine with L-Ser. For the other four amino acids, the levels of their corresponding disubstituted MAAs were determined after the reaction time was elongated to 30 min. All reactions were performed in at least two independent replicates.

[2] = reported value used to quantify MG; cited from earlier work

Compound: COC1=C(NCC(=O)O)C[C@@](O)(CO)CC1=N[C@H](C(=O)O)[C@@H](C)O [porphyra-334]
Km (MysH): 385 µM
Vmax (MysH): 0.62 µM/min
kcat (MysH): 0.0207 s⁻¹
maximal absorbance [1]: around 334 nm

Compound: C[C@H](N)C(=O)O [L-Ala]
consumption level of MG in the MysD reaction relative to that with L-Thr (set as 100%) (MysD; 0.25 μM MysD): 0.4%

maximal absorbance [1]: around 334 nm
Compound: COC1=C(NCC(=O)O)CC(O)(CO)C/C1=N\C(C)C(=O)O (centres unmarked) [MG-Ala, mycosporine-glycine-alanine]

maximal absorbance [1]: 310 nm
Compound: COC1=C(NCC(=O)O)C[C@@](O)(CO)CC1=O [MG, mycosporine-glycine]
extinction coefficient [2]: 28,100 M^−1cm^−1

Compound: N[C@@H](CO)C(=O)O [L-Ser]
consumption level of MG in the MysD reaction relative to that with L-Thr (set as 100%) (MysD; 0.25 μM MysD): about 12.7%
consumption of MG in the MysD reaction (MysD; 5 mM amino acid, 50 μM MG): complete consumption of MG

Compound: N[C@@H](CS)C(=O)O [L-Cys]
consumption level of MG in the MysD reaction relative to that with L-Thr (set as 100%) (MysD; 0.25 μM MysD): 0.9%

maximal absorbance [1]: 320 nm
Compound: COC1=C(N)CC(O)(CO)CC1=NC(CO)C(=O)O (centres unmarked) [Palythine-Ser, palythine-Ser]

maximal absorbance [1]: 294 nm
Compound: COC1=C(O)CC(O)(CO)CC1=O (centres unmarked) [4-DG, 4-deoxygadusol]

maximal absorbance [1]: 298 nm
Compound: mycosporine-amine [M-NH2]

Compound: C[C@@H](O)[C@H](N)C(=O)O [L-Thr]
MG converted into porphyra-334 (MysD; 0.25 μM MysD, 50 μM MG, 5 mM amino acid, 8 min, optimal conditions (37° C., pH 8.5)): about 40%
consumption of MG in the MysD reaction (MysD; 5 mM amino acid, 50 μM MG): complete consumption of MG

maximal absorbance [1]: 320 nm
Compound: COC1=C(N)C[C@@](O)(CO)C/C1=N\[C@H](C(=O)O)C(C)O (some centres unmarked) [palythine-Thr]
